Measured values: patent publication US6737383B1, “Herbicidal oxadiazolidines” (priority 1999, dated 2004)

Experiments:
pigweed = assay: Test B pre/postemergence pigweed; assay type: in vivo, Amaranthus retroflexus
How it was run: (§1)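 Herbicidal effect was estimated by eye on a ten-point control scale after plants spent twelve to sixteen days in a greenhouse following soil or foliar treatment. Foliar sprays targeted plants at one to four leaves; all doses were formulated in a non-phytotoxic solvent with surfactant.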

rice = assay: Test B flood test rice; assay type: in vivo, Oryza sativa
How it was run: (§2)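 Each value is a visual injury score relative to controls, with 10 meaning complete control and 0 no effect. Evaluation took place twelve to sixteen days after the 2-leaf-stage plants were treated and kept in the greenhouse.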

giant foxtail = assay: Test B pre/postemergence giant foxtail; assay type: in vivo, Setaria faberii
How it was run: as §1

cocklebur = assay: Test B pre/postemergence cocklebur; assay type: in vivo, Xanthium strumarium
How it was run: as §1

purple nutsedge = assay: Test B pre/postemergence purple nutsedge; assay type: in vivo, Cyperus rotundus
How it was run: as §1

crabgrass = assay: Test B pre/postemergence crabgrass; assay type: in vivo, Digitaria sanguinalis
How it was run: as §1

bedstraw = assay: Test B pre/postemergence bedstraw; assay type: in vivo, Galium aparine
How it was run: as §1

wild oat = assay: Test B pre/postemergence wild oat; assay type: in vivo, Avena fatua
How it was run: as §1

surinam grass = assay: Test B pre/postemergence surinam grass; assay type: in vivo, Brachiaria decumbens
How it was run: as §1

bamyardgrass = assay: Test B flood test barnyardgrass; assay type: in vivo, Echinochloa crus-galli
How it was run: as §2

morningglory = assay: Test B pre/postemergence morningglory; assay type: in vivo, Ipomoea hederacea
How it was run: as §1

wheat = assay: Test B pre/postemergence wheat; assay type: in vivo, Triticum aestivum
How it was run: as §1

duck salad = assay: Test B flood test duck salad; assay type: in vivo, Heteranthera limosa
How it was run: as §2

velvetleaf = assay: Test B pre/postemergence velvetleaf; assay type: in vivo, Abutilon theophrasti
How it was run: as §1

blackgrass = assay: Test B pre/postemergence blackgrass; assay type: in vivo, Alopecurus myosuroides
How it was run: as §1

sugar beet = assay: Test B pre/postemergence sugar beet; assay type: in vivo, Beta vulgaris
How it was run: as §1

[1] = Postemergence, Rate 125 g/ha, scale of 0 to 10 where 0 is no effect and 10 is complete control
[2] = Preemergence, Rate 31 g/ha, visual rating, scale 0 to 10 (0 no effect, 10 complete control)
[3] = Preemergence, Rate 62 g/ha, scale 0 to 10 (0 no effect, 10 complete control)
[4] = Preemergence, Rate 125 g/ha, 0 is no effect, 10 is complete control
[5] = Preemergence, Rate 250 g/ha, scale 0 to 10, 0 is no effect, 10 is complete control
[6] = Rate 31 g/ha, Postemergence, scale 0 to 10
[7] = Rate 62 g/ha, Postemergence, scale of 0 to 10 where 0 is no effect and 10 is complete control
[8] = Rate 250 g/ha, Postemergence, scale 0 to 10, 0 is no effect, 10 is complete control
[9] = Postemergence (flood test species), Rate 125 g/ha, scale of 0 to 10 where 0 is no effect and 10 is complete control
[10] = Rate 31 g/ha, Postemergence section (flood test species), scale 0 to 10
[11] = Rate 62 g/ha, Postemergence section, flood test species, scale of 0 to 10 where 0 is no effect and 10 is complete control
[12] = Rate 250 g/ha, Postemergence (flood test), scale 0 to 10, 0 is no effect, 10 is complete control

Cc1noc(C)c1-n1c(=O)on(C(=O)N(c2ccc(F)cc2F)C(C)C)c1=O [Compound 156]
Redroot pigweed plant response rating (pigweed; [1]): 0
Redroot pigweed plant response rating (pigweed; [2]): 0
Redroot pigweed plant response rating (pigweed; [3]): 0
Redroot pigweed plant response rating (0 to 10 scale) (pigweed; [4]): 4
Redroot pigweed plant response rating (pigweed; [5]): 9
Redroot pigweed plant response rating (pigweed; [6]): 0
Redroot pigweed plant response rating (pigweed; [7]): 0
Plant response rating, Redroot pigweed (pigweed; [8]): 0
Rice plant response rating (rice; [9]): 0
Rice plant response rating (rice; [10]): 0
Rice plant response rating (rice; [11]): 0
Plant response rating, Rice (rice; [12]): 0
Giant foxtail plant response rating (giant foxtail; [1]): 0
Giant foxtail plant response rating (giant foxtail; [2]): 0
Giant foxtail plant response rating (giant foxtail; [3]): 0
Giant foxtail plant response rating (0 to 10 scale) (giant foxtail; [4]): 2
Giant foxtail plant response rating (giant foxtail; [5]): 7
Giant foxtail plant response rating (giant foxtail; [6]): 0
Giant foxtail plant response rating (giant foxtail; [7]): 0
Plant response rating, Giant foxtail (giant foxtail; [8]): 0
Cocklebur plant response rating (cocklebur; [1]): 0
Cocklebur plant response rating (cocklebur; [2]): 0
Cocklebur plant response rating (cocklebur; [3]): 0
Cocklebur plant response rating (0 to 10 scale) (cocklebur; [4]): 0
Cocklebur plant response rating (cocklebur; [5]): 0
Cocklebur plant response rating (cocklebur; [6]): 0
Cocklebur plant response rating (cocklebur; [7]): 0
Plant response rating, Cocklebur (cocklebur; [8]): 0
Nutsedge plant response rating (purple nutsedge; [1]): 0
Nutsedge plant response rating (purple nutsedge; [2]): 0
Nutsedge plant response rating (purple nutsedge; [3]): 0
Nutsedge plant response rating (0 to 10 scale) (purple nutsedge; [4]): 0
Nutsedge plant response rating (purple nutsedge; [5]): 0
Nutsedge plant response rating (purple nutsedge; [6]): 0
Nutsedge plant response rating (purple nutsedge; [7]): 0
Plant response rating, Nutsedge (purple nutsedge; [8]): 0
Crabgrass plant response rating (crabgrass; [1]): 0
Crabgrass plant response rating (crabgrass; [2]): 0
Crabgrass plant response rating (crabgrass; [3]): 0
Crabgrass plant response rating (0 to 10 scale) (crabgrass; [4]): 4
Crabgrass plant response rating (crabgrass; [5]): 6
Crabgrass plant response rating (crabgrass; [6]): 0
Crabgrass plant response rating (crabgrass; [7]): 0
Plant response rating, Crabgrass (crabgrass; [8]): 0
Bedstraw plant response rating (bedstraw; [1]): 0
Bedstraw plant response rating (bedstraw; [2]): 0
Bedstraw plant response rating (bedstraw; [3]): 0
Bedstraw plant response rating (0 to 10 scale) (bedstraw; [4]): 0
Bedstraw plant response rating (bedstraw; [5]): 0
Bedstraw plant response rating (bedstraw; [6]): 0
Bedstraw plant response rating (bedstraw; [7]): 0
Plant response rating, Bedstraw (bedstraw; [8]): 0
Wild oats plant response rating (wild oat; [2]): 0
Wild oats plant response rating (wild oat; [3]): 0
Wild oats plant response rating (0 to 10 scale) (wild oat; [4]): 0
Wild oats plant response rating (wild oat; [5]): 0
Wild oats plant response rating (wild oat; [7]): 0
Plant response rating, Wild oats (wild oat; [8]): 0
B. signalgrass plant response rating (surinam grass; [1]): 0
B. signalgrass plant response rating (surinam grass; [2]): 0
B. signalgrass plant response rating (surinam grass; [3]): 0
B. signalgrass plant response rating (0 to 10 scale) (surinam grass; [4]): 0
B. signalgrass plant response rating (surinam grass; [5]): 2
B. signalgrass plant response rating (surinam grass; [6]): 0
B. signalgrass plant response rating (surinam grass; [7]): 0
Plant response rating, B. signalgrass (surinam grass; [8]): 0
Barnyardgrass plant response rating (bamyardgrass; [9]): 0
Barnyardgrass plant response rating (bamyardgrass; [10]): 0
Barnyardgrass plant response rating (bamyardgrass; [11]): 0
Plant response rating, Barnyardgrass (bamyardgrass; [12]): 0
Morningglory plant response rating (morningglory; [1]): 1
Morningglory plant response rating (morningglory; [2]): 0
Morningglory plant response rating (morningglory; [3]): 0
Morningglory plant response rating (0 to 10 scale) (morningglory; [4]): 0
Morningglory plant response rating (morningglory; [5]): 0
Morningglory plant response rating (morningglory; [6]): 0
Morningglory plant response rating (morningglory; [7]): 0
Plant response rating, Morningglory (morningglory; [8]): 2
Wheat plant response rating (wheat; [2]): 0
Wheat plant response rating (wheat; [3]): 0
Wheat plant response rating (0 to 10 scale) (wheat; [4]): 0
Wheat plant response rating (wheat; [5]): 0
Wheat plant response rating (wheat; [7]): 0
Plant response rating, Wheat (wheat; [8]): 0
Ducksalad plant response rating (duck salad; [9]): 0
Ducksalad plant response rating (duck salad; [10]): 0
Ducksalad plant response rating (duck salad; [11]): 0
Plant response rating, Ducksalad (duck salad; [12]): 0
Velvetleaf plant response rating (velvetleaf; [2]): 0
Velvetleaf plant response rating (velvetleaf; [3]): 0
Velvetleaf plant response rating (0 to 10 scale) (velvetleaf; [4]): 0
Velvetleaf plant response rating (velvetleaf; [5]): 0
Velvetleaf plant response rating (velvetleaf; [7]): 0
Plant response rating, Velvetleaf (velvetleaf; [8]): 0
Blackgrass plant response rating (blackgrass; [1]): 0
Blackgrass plant response rating (blackgrass; [2]): 0
Blackgrass plant response rating (blackgrass; [3]): 0
Blackgrass plant response rating (0 to 10 scale) (blackgrass; [4]): 0
Blackgrass plant response rating (blackgrass; [5]): 3
Blackgrass plant response rating (blackgrass; [6]): 0
Blackgrass plant response rating (blackgrass; [7]): 0
Plant response rating, Blackgrass (blackgrass; [8]): 0
Sugarbeets plant response rating (sugar beet; [1]): 0
Sugarbeets plant response rating (sugar beet; [2]): 0
Sugarbeets plant response rating (sugar beet; [3]): 0
Sugarbeets plant response rating (0 to 10 scale) (sugar beet; [4]): 0
Sugarbeets plant response rating (sugar beet; [5]): 0
Sugarbeets plant response rating (sugar beet; [7]): 0
Plant response rating, Sugarbeets (sugar beet; [8]): 0
